Patent US20230066946A1, “1,5-DIPHENYLPYRAZOLYL-3-OXYALKYL ACIDS AND 1-PHENYL-5-THIENYLPYRAZOLYL-3-OXYALKYL ACIDS AND THE USE THEREOF FOR CONTROL OF UNWANTED PLANT GROWTH” (Bayer Aktiengesellschaft, priority 2019, published 2023)

Key:
[1] = test system: SETVI; assay: Pre-emergence herbicidal action against SETVI; type: in vivo, Setaria viridis; settings: 1280 g/ha, scored visually after about 3 weeks vs untreated controls
Outline: (§1)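 Pre-emergence, sandy loam, pots doubly sown. WP/EC formulations + 0.5% additive, 600 L/ha water, sprayed on soil surface; 1280 or 320 g/ha. Greenhouse ~3 wk; visual % effect vs untreated.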

[2] = test system: AMARE; assay: Pre-emergence herbicidal action against AMARE; type: in vivo, Amaranthus retroflexus; settings: scored visually after about 3 weeks vs untreated controls; for Pre-emergence action at 320 g/ha against AMARE in %: 100% = plants have died, 0% = like control plants; for Pre-emergence action against AMARE in %: 1280 g/ha
Outline: as §1

[3] = test system: VERPE; assay: Pre-emergence herbicidal action against VERPE; type: in vivo, Veronica persica; settings: 320 g/ha, scored visually after about 3 weeks vs untreated controls
Outline: as §1

[4] = test system: AVEFA; assay: Post-emergence herbicidal action against AVEFA; type: in vivo, Avena fatua; settings: 1280 g/ha, post-emergence at one-leaf stage, rated visually after about 3 weeks vs untreated controls
Procedure: (§2) [table] Seeds of mono- and dicotyledonous weed plants are placed in plastic pots in sandy loam soil (twin sowing with one species each of mono- or dicotyledonous weed plants per pot), covered with soil and cultivated in a greenhouse under controlled growth conditions. 2 to 3 weeks after sowing, the test plants are treated at the one-leaf stage. The compounds of the invention, formulated in the form of wettable powders (WP) or as emulsion concentrates (EC), are applied to the green parts of the plants as aqueous suspension or emulsion with addition of 0.5% additive at a water application rate equivalent to 600 litres per hectare. After the test plants have been kept in the greenhouse under optimum growth conditions for about 3 weeks, the activity of the preparations is rated visually in comparison to untreated controls. For example, 100% activity=the plants have died, 0% activity=like control plants. Tables 5.1-5.16 below show the effects of selected compounds of the general formula (I) according to Tables 1 to 3 on various harmful plants at an application rate corresponding to 1280 or 320 g/ha, which have been obtained by the aforementioned experimental method.

[5] = test system: AMARE; assay: Post-emergence herbicidal action against AMARE; type: in vivo, Amaranthus retroflexus; settings: visual rating about 3 weeks after treatment
Outline: (§3)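 Visual scoring, where 100% = dead and 0% = like untreated plants, was done about 3 weeks after treatment. Dose was 1280 or 320 g/ha, delivered as aqueous WP/EC suspension or emulsion with 0.5% additive at 600 L/ha. Pot-grown weeds in sandy loam were treated post-emergence at one leaf, 2-3 weeks post-sowing.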

[6] = test system: MATIN; assay: Post-emergence herbicidal action against MATIN; type: in vivo, Matricaria inodora; settings: visual rating about 3 weeks after treatment
Outline: as §3

[7] = test system: VIOTR; assay: Post-emergence herbicidal action against VIOTR; type: in vivo, Viola tricolor; settings: 320 g/ha, visual rating about 3 weeks after treatment
Outline: as §3

[8] = test system: VERPE; assay: Post-emergence herbicidal action against VERPE; type: in vivo, Veronica persica; settings: 320 g/ha, visual rating about 3 weeks after treatment
Outline: as §3

[9] = test system: VIOTR; assay: Pre-emergence herbicidal action against VIOTR; type: in vivo, Viola tricolor; settings: 1280 g/ha, scored visually after about 3 weeks vs untreated controls
Outline: as §1

[10] = test system: ALOMY; assay: Post-emergence herbicidal action against ALOMY; type: in vivo, Alopecurus myosuroides; settings: 1280 g/ha, post-emergence at one-leaf stage, rated visually after about 3 weeks vs untreated controls
Procedure: as §2

[11] = test system: PHBPU; assay: Post-emergence herbicidal action against PHBPU; type: in vivo, Pharbitis purpurea; settings: 320 g/ha, visual rating about 3 weeks after treatment
Outline: as §3

[12] = test system: POLCO; assay: Post-emergence herbicidal action against POLCO; type: in vivo, Polygonum convolvulus; settings: 320 g/ha, visual rating about 3 weeks after treatment
Outline: as §3

[13] = test system: STEME; assay: Post-emergence herbicidal action against STEME; type: in vivo, Stellaria media; settings: visual rating about 3 weeks after treatment
Outline: as §3

[14] = test system: SETVI; assay: Post-emergence herbicidal action against SETVI; type: in vivo, Setaria viridis; settings: 1280 g/ha, post-emergence at one-leaf stage, rated visually after about 3 weeks vs untreated controls
Outline: as §3

[15] = test system: CYPES; assay: Pre-emergence herbicidal action against CYPES; type: in vivo, Cyperus esculentus; settings: scored visually after about 3 weeks vs untreated controls, 100% = plants have died, 0% = like control plants
Text: (§4) Seeds of mono- and dicotyledonous weed plants are placed in plastic pots in sandy loam soil (doubly sown with one species each of mono- or dicotyledonous weed plants per pot) and covered with soil. The compounds of the invention, formulated in the form of wettable powders (WP) or as emulsion concentrates (EC), are then applied onto the surface of the covering soil as aqueous suspension or emulsion with addition of 0.5% additive at a water application rate equivalent to 600 litres per hectare. After the treatment, the pots are placed in a greenhouse and kept under good growth conditions for the trial plants. After about 3 weeks, the effect of the preparations is scored visually in comparison with untreated controls as percentages. For example, 100% activity=the plants have died, 0% activity=like control plants. [table] Tables 4.1-4.15 below show the effects of selected compounds of the general formula (I) according to Tables 1 to 3 on various harmful plants at an application rate corresponding to 1280 or 320 g/ha, which have been obtained by the aforementioned experimental method.

[16] = test system: ECHCG; assay: Pre-emergence herbicidal action against ECHCG; type: in vivo, Echinochloa crus-galli; settings: scored visually after about 3 weeks vs untreated controls, 100% = plants have died, 0% = like control plants
Outline: as §1

[17] = test system: MATIN; assay: Pre-emergence herbicidal action against MATIN; type: in vivo, Matricaria inodora; settings: 1280 g/ha, scored visually after about 3 weeks vs untreated controls
Outline: as §1

[18] = test system: STEME; assay: Pre-emergence herbicidal action against STEME; type: in vivo, Stellaria media; settings: 1280 g/ha, scored visually after about 3 weeks vs untreated controls
Outline: as §1

[19] = test system: ECHCG; assay: Post-emergence herbicidal action against ECHCG; type: in vivo, Echinochloa crus-galli; settings: 1280 g/ha, post-emergence at one-leaf stage, rated visually after about 3 weeks vs untreated controls
Outline: as §3

[20] = test system: harmful plants; assay: Pre-emergence herbicidal action, summary of Tables 4.1-4.15; type: in vivo; settings: result in words
Text: as §4, with “plants.” for “plants. [table] Tables 4.1-4.15 below show the effects of selected compounds of the general formula (I) according to Tables 1 to 3 on various harmful plants at an application rate corresponding to 1280 or 320 g/ha, which have been obtained by the aforementioned experimental method.”
Tables 4.1-4.15 below show the effects of selected compounds of the general formula (I) according to Tables 1 to 3 on various harmful plants at an application rate corresponding to 1280 or 320 g/ha, which have been obtained by the aforementioned experimental method.
For example, compounds no. I-008, I-056, I-057, I-061, I-067, I-070 and I-072 applied by the pre-emergence method have very good action (80% to 100% herbicidal action) against harmful plants such as Alopecurus myosuroides, Amaranthus retroflexus, Matricaria inodora, Polygonum convolvulus, Setaria viridis and Stellaria media at an application rate of 1.28 kg of active substance or less per hectare.

[21] = test system: PHBPU; assay: Pre-emergence herbicidal action against PHBPU; type: in vivo, Pharbitis purpurea; settings: 1280 g/ha, scored visually after about 3 weeks vs untreated controls
Text: as §4

SMILES | Pre-emergence action against SETVI in % [1] [%] | Pre-emergence action at 320 g/ha against AMARE in % [2] [%] | Pre-emergence action against AMARE in % [2] [%] | Pre-emergence action against VERPE in % [3] [%] | Post-emergence action against AVEFA in % [4] [%] | Post-emergence action against AMARE in % ([5]; 320 g/ha) [%] | Post-emergence action against AMARE in % ([5]; 1280 g/ha) [%] | Post-emergence action against MATIN in % ([6]; 1280 g/ha) [%] | Post-emergence action against VIOTR in % [7] [%] | Post-emergence action against VERPE in % [8] [%] | Pre-emergence action against VIOTR in % [9] [%] | Post-emergence action against MATIN in % ([6]; 320 g/ha) [%] | Post-emergence action against PHBPU in % [11] [%] | Post-emergence action against STEME in % ([13]; 1280 g/ha) [%] | Pre-emergence action against MATIN in % [17] [%] | Pre-emergence action against STEME in % [18] [%] | Post-emergence action against STEME in % ([13]; 320 g/ha) [%] | further results
COC(=O)COc1nn(-c2ccc(F)cc2)c(-c2ccc(F)c(F)c2)c1Cl [I-025] | 80 | 90 | 90 | 80 | 80 | 80 | 80 | 80 | 80 | 80 | – | – | – | – | – | – | – | –
COC(=O)COc1nn(-c2cccc(Cl)c2)c(-c2ccc(F)c(F)c2)c1C#N [I-051] | – | – | 90 | – | 80 | – | – | 90 | 90 | 80 | 90 | 90 | 80 | 80 | – | – | – | Post-emergence action against ALOMY in % [10]: 80%; Post-emergence action against POLCO in % [12]: 80%
COC(=O)COc1nn(-c2ccc(F)cc2)c(-c2ccc(F)cc2)c1C#N [I-009] | – | – | – | – | 80 | – | 80 | – | – | – | – | – | – | – | – | – | – | Post-emergence action against SETVI in % [14]: 80%
COC(=O)COc1nn(-c2ccccc2F)c(-c2ccccc2)c1C#N [I-022] | 100 | 100 | 100 | 100 | 80 | 80 | 80 | 80 | – | 80 | 90 | 80 | – | 80 | 90 | 90 | 80 | Pre-emergence action at 1280 g/ha against CYPES in % [15]: 100%; Pre-emergence action at 1280 g/ha against ECHCG in % [16]: 80%; Post-emergence action against ALOMY in % [10]: 80%; Post-emergence action against ECHCG in % [19]: 80%; Post-emergence action against SETVI in % [14]: 80%; Post-emergence action against POLCO in % [12]: 80%; herbicidal efficacy against harmful plants in the case of pre-emergence treatment [20]: good herbicidal efficacy
COC(=O)COc1nn(-c2cccc(F)c2)c(-c2ccc(F)cc2)c1C#N [I-012] | – | 100 | 100 | – | 80 | 80 | 80 | – | 80 | – | – | – | 80 | 80 | 100 | – | 80 | Pre-emergence action at 1280 g/ha against CYPES in % [15]: 100%
C#Cc1c(OCC(=O)OC)nn(-c2cccc(F)c2)c1-c1cccc(F)c1 [I-069] | 90 | 90 | 90 | – | – | – | 90 | – | – | – | 100 | – | 80 | 80 | 90 | 90 | – | Pre-emergence action at 1280 g/ha against ECHCG in % [16]: 80%; Pre-emergence action against PHBPU in % [21]: 80%; herbicidal efficacy against harmful plants in the case of pre-emergence treatment [20]: good herbicidal efficacy
COC(=O)COc1nn(-c2ccc(F)cc2)c(-c2ccc(F)c(F)c2)c1C#N [I-036] | 80 | – | 80 | – | 80 | – | – | 80 | 80 | 80 | – | 80 | 80 | 80 | – | – | 80 | –
COC(=O)COc1nn(-c2ccccc2F)c(-c2ccccc2)c1Cl [I-015] | 90 | 90 | 90 | 90 | – | 80 | 80 | 90 | – | 90 | – | 90 | 80 | – | 90 | 90 | – | Pre-emergence action against PHBPU in % [21]: 100%
